Assay: Dissolution of TT001 in I.V. formulation vehicle
Format: physicochemical
Conditions: 0.1 to 10 mg/ml in 40% w/v HPβCD solution in water for injection; a couple of hours for complete dissolution
Method: FORMULATION METHOD FOR THE PREPARATION OF TT001 FOR I.V. DOSING, 0.1 to 10 mg/ml The formulation method is applicable at concentrations in formulation between 0.1 and 10 mg/mL corresponding to 0.262 and 26.2 μmol/mL • TT001 M.W.: 381.8 g/mol • 10 The dissolution of TT001 is moderate, allow a couple of hours for complete dissolution.
• Preparation of 40% w/v HPβCD solution in water for injection • Excipients Hydroxypropyl-β-cyclodextrin, Kleptose, Roquette (HPβCD) 400 mg (40% w/v) • Water for injection to 1 ml (1.13 g) • is Appearance Clear • Density 1.13 g/cm^3
• Preparation of TT001 I.V. formulations between 0.1 and 10 mg/ml • TT001 parent form 0.1-10 mg • Vehicle (40% w/v HPβCD solution in water for injection) to 1 ml (1.13 g) • Appearance Clear • Density 1.13 g/cm^3 • Comments

dissolution: moderate
Compound: C[C@@H](Oc1nnc(-c2ccncc2)n1C)c1cc(-c2cccc(Cl)c2)on1 [TT001, 4-[5-[(1R)-1-[5-(3-Chlorophenyl)-3-isoxazolyl]ethoxy]-4-methyl-4H-1,2,4-triazol-3-yl]pyridine]
